Source: publication PMC8707548, “Restoring Tumour Selectivity of the Bioreductive Prodrug PR-104 by Developing an Analogue Resistant to Aerobic Metabolism by Human Aldo-Keto Reductase 1C3” (Pharmaceuticals, 2021)

Target: T1, recombinant AKR1C3 (human aldo-keto reductase 1C3) (Homo sapiens, UniProt P42330)
T1 construct: recombinant enzyme
T1 sequence (P42330 1-323): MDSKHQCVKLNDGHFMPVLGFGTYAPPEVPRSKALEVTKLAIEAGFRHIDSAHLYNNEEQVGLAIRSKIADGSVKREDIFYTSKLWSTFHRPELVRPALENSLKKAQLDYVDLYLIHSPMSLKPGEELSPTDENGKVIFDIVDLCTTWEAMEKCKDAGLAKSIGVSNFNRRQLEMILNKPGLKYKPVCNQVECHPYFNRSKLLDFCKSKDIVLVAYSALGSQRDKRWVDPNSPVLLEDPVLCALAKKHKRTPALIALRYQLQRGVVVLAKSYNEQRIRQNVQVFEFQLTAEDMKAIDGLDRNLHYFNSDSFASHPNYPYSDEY
Assay: absorbance at […] nm, Michaelis-Menten fit
Type: biochemical
Details: 0.25 mM NAD(P)H, 10 mM Tris-Cl pH 7.0, 4% DMSO

## CS(=O)(=O)OCCN(CCBr)c1c(C(=O)NCCO)cc([N+](=O)[O-])cc1[N+](=O)[O-] [PR-104A]
  KM: kinetic parameters calculated for each (D)NBM using the following extinction coefficients: PR-104A
